In this test the test system is multi-drug resistant P. aeruginosa. Put plainly: Susceptibility of the patient's positive bacterial culture. Particulars: positive bacterial culture of the patient before treatment. Format: cell-based. An excerpt:
The patient was a person with an 8 year history of chronic rhinosinusitis with daily and recurrent symptoms including facial congestion, facial pain and pressure, headaches and mucopurulent nasal drainage. The patient achieved limited success with previous treatments which included oral antibiotics, oral/nasal corticosteroids, antibiotic irrigation, saline rinses and suctioning. A positive bacterial culture indicated the presence of multi-drug resistant P. aeruginosa, susceptible only to colistimethate. Colistimethate was only commercially available as a solution for intravenous infusion, requiring hospitalization and constant monitoring for neurotoxicity and nephrotoxicity. In order to avoid the intravenous route of administration and the necessary hospitalization, a novel topical formulation was prescribed, consisting of: […]

For the substance colistimethate, the “susceptibility of cultured pathogen” value was “susceptible”.

The values are drawn from patent US20170007704A1, “CARRIER AND PHARMACEUTICAL COMPOSITIONS FOR INTRASINAL DELIVERY AND USES THEREOF” (priority 2015, published 2017).
